Entries after “also recorded” stand apart in the source; their conditions may differ.
Legend:
[1] = tested on: Recombinant CysLite PTGES3; experiment: Differential scanning fluorimetry (thermal shift) of fully labeled CysLite PTGES3; format: binding; conditions: cyslite PTGES3 fully labeled with compound
Experimental: Recombinant […] PTGES3 at a concentration of 8 μM in 50 mM HEPES pH 7.5, 150 mM NaCl were incubated with compounds or DMSO for unlabeled comparisons, at ambient temperature until complete labeling was observed by intact protein mass spectrometry. 7K Zeba Desalting columns (ThermoFisher) were used to remove excess compound. The Zeba 7K columns were first preequilibrated with 50 mM HEPES (pH 7.5), 150 mM NaCl. Sypro Orange (500x, DMSO) was added to the purified protein-small molecule conjugates to a final concentration of 5x Sypro Orange. These DSF assays were performed in triplicate in white 96-well plates. The plate was sealed with optically clear PCR sealing film (USA Scientific). The thermal shift assay was performed on a Bio-Rad CFX qPCR instrument. The temperature was increased from 23° C. to 95° C. at a rate of 0.5° C./s. After each temperature step, fluorescence was monitored with an excitation of 492 nm and emission of 610 nm. Raw fluorescence values were normalized between 0 and 1 and fit to a Boltzman equation using GraphPad Prism with the maximum value of the fit constrained to 1.

[2] = tested on: cysteine 76 of cyslite PTGES3; experiment: Labeling of cysteine 76 of cyslite PTGES3 at 100 uM compound; format: binding
Experimental: (§1) Compounds were tested at 100 uM for the ability to label cysteine 76 of cyslite PTGES3. In some cases labeling was not detected. Cyslite PTGES3 was then fully labeled with the compounds and the thermal shift values of the fully labeled protein was determined with stabilization values indicated below. […] Finally, select compounds were tested to determine if they inhibited cell growth in AR+LNCaP cells.

AR+ LNCaP cells = experiment: Cell growth of AR+ LNCaP cells; format: cell-based
Experimental: (§2) Normalized to DMSO and analyzed by IncuCyte system (n=3 as biological replicates; Mean±SEM).
as §1
LNCaP cell lines were grown in the RPMI 1640 medium (Gibco) supplemented with 10% fetal bovine serum (FBS; Gibco). Cells were grown in a humidified 5% CO2 incubator at 37° C.

[3] = Parallel artificial membrane permeability assay (PAMPA); format: in vitro ADME
AR-independent PC3 cells = experiment: Cell growth of AR-independent PC3 cells; format: cell-based
Experimental: as §2
Fold change of cell count normalized over day 0 was analyzed by IncuCyte system (n=3 as biological replicates; Mean SEM). Unpaired two-tailed t-test was used to determine statistical significance (ns=no significant difference; *** P<0.001).

[4] = tested on: AR protein levels, LNCaP cells; experiment: AR protein levels in LNCaP cells by western blotting; format: cell-based; conditions: 100 μM, 48 h, nuclear AR, western blot
Experimental: Nuclear AR and TBP levels were detected by western blotting. Each western blot experiment was performed twice to determine reproducibility.

[5] = tested on: AR target genes, LNCaP cells; experiment: AR target gene mRNA levels in LNCaP cells by real-time PCR; format: cell-based; conditions: 100 μM, 48 h, mRNA over 18s rRNA
Experimental: RNA was collected, indicated genes mRNA levels over 18s rRNA were measured by real-time PCR (n=3 as biological replicates; Mean±SEM).

[6] = biological target: T1, Recombinant CysLite PTGES3 (cysteine 76) (Homo sapiens, UniProt Q15185); experiment: Dose response assay: labeling of recombinant CysLite PTGES3 by intact protein mass spectrometry; format: binding; conditions: 100 uM BME, 1 μM protein, 1 h ambient temperature; read-out: EC50 with 100 uM BME competitor (half maximal labeling of cyslite PTGES3)
T1 sequence (Q15185 1-160): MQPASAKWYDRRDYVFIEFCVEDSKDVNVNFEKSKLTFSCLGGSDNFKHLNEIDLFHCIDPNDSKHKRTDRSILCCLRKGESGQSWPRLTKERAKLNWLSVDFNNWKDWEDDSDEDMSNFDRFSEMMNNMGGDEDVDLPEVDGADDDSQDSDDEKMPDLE
Experimental: Recombinant CysLite PTGES3 (1 μM, 50 mM Tris-HCl, pH 8.0, 150 mM NaCl and 100 μM βME) were incubated for 1 h at ambient temperature with lead fragments (4% DMSO) in a 7-, 8- or 9-point threefold serial dilution series in duplicate. Reactions were quenched by the addition of formic acid to a final concentration of 0.4%. Labeling was determined by intact protein mass spectrometry.

[7] = tested on: Recombinant CysLite PTGES3; experiment: BME competition assay: labeling of CysLite PTGES3 at high BME competitor; format: binding; conditions: 200 uM compound
Experimental: Recombinant CysLite PTGES3 (1 μM, 50 mM Tris-HCl, pH 8.0, 150 mM NaCl) were incubated with 200 μM fragment (2% DMSO) and 500 μM or 1 mM BME at ambient temperature for 8 h. Reactions were quenched by the addition of formic acid to a final concentration of 0.4%. Labeling was determined by intact protein mass spectrometry.

PTGES3-AR interaction = experiment: Far western blot of AR-PTGES3 interaction; format: biochemical; conditions: CysLite PTGES3 pre-modified with compound
Experimental: Flag-AR was loaded on a gel, transferred to membrane, and renatured. The membranes were incubated with recombinant CysLite PTGES3 protein or recombinant CysLite PTGES3 protein labeled with 1. The interaction was detected with PTGES3 antibody. […] Each blot experiment was performed twice to determine reproducibility.

[8] = tested on: PTGES3 enhanced AR/ARE binding; experiment: AR/ARE gel shift (EMSA) assay; format: biochemical; conditions: DHT+ buffer, free ARE DNA detected by SYBR gold
Experimental: The reactions were then loaded on a DNA retardation gel. ARE DNA bands were detected by SYBR gold. […] Experiment was performed twice to determine reproducibility.
Electrophoretic mobility shift assays (EMSA) were performed using recombinant AR protein (EMD Millipore) and 3×ARE dsDNA from the ARR3TK plasmid. Protein-DNA complexes were allowed to incubate in room temperature for 30 min in loading buffer (20 mM HEPES, 100 mM KCl, 2 ng/ml poly(dI-dC), 10% glycerol, and 20 nM DHT), followed by electrophoresis on 6% DNA Retardation Gels in TBE buffer (PH 8.0). Visualization of protein-DNA complexes was performed with SYBR Gold DNA staining dye (Invitrogen).

With `C=CS(=O)(=O)N[C@@H]1CN(C(=O)c2ccc(S(N)(=O)=O)c(Cl)c2)C[C@H]1c1ccccc1` [Compound 10] the “Thermal Shift (Cyslite PTGES3) ΔTm” value [1] was “ΔTm + 3.3 °C”, the “4 h labeling (100 uM)” value [2] was “Not detected” and the “24 h labeling (100 uM)” value [2] was 27.44%.

With `C=CS(=O)(=O)N[C@@H]1CN(C(=O)c2ccc(S(N)(=O)=O)cc2)C[C@H]1c1ccccc1` [Compound 6] the “Thermal Shift (Cyslite PTGES3) ΔTm” value [1] was “ΔTm + 3.0 °C”, the “Cell activity (inhibited cell growth in AR+ LNCaP cells)” value (AR+ LNCaP cells) was “Yes” and the “4 h labeling (100 uM)” value [2] was 9.61%. The “24 h labeling (100 uM)” value [2] was 44.20%.

In the case of `C=CS(=O)(=O)NCCNC(=O)[C@@H]1CN(C(=O)c2ccc(S(N)(=O)=O)c(F)c2)C[C@H]1c1ccccc1` [Compound 13], the “Thermal Shift (Cyslite PTGES3) ΔTm” value [1] is reported as “No stabilization”, the “4 h labeling (100 uM)” value [2] is reported as “Not detected” and the “24 h labeling (100 uM)” value [2] is reported as 13.63%.

For `C=CS(=O)(=O)N[C@@H]1CN(C(=O)c2cc(F)c(O)c(Cl)c2)C[C@H]1c1ccccc1` [Compound 3], the “Thermal Shift (Cyslite PTGES3) ΔTm” value [1] was “ΔTm + 3.3 °C”, the “4 h labeling (100 uM)” value [2] was 5.27% and the “24 h labeling (100 uM)” value [2] was 28.15%.

In the case of `C=CS(=O)(=O)N[C@@H]1CN(C(=O)c2cc(F)cc(Cl)c2)C[C@H]1c1ccccc1` [Compound 8], the “4 h labeling (100 uM)” value [2] is reported as “Not detected” and the “24 h labeling (100 uM)” value [2] is reported as 14.74%.

In the case of `C=CS(=O)(=O)N[C@@H]1CN(C(=O)c2cccc(S(N)(=O)=O)c2)C[C@H]1c1ccccc1` [Compound 11], the “Thermal Shift (Cyslite PTGES3) ΔTm” value [1] is reported as “ΔTm + 0.4 °C”, the “Cell activity (inhibited cell growth in AR+ LNCaP cells)” value (AR+ LNCaP cells) is reported as “Yes” and the “4 h labeling (100 uM)” value [2] is reported as 17.84%. For the same compound, the “24 h labeling (100 uM)” value [2] was 72.62%.

In the case of `COC(=O)[C@@H]1CN(C(=O)c2cc(F)c(O)c(Cl)c2)C[C@H]1c1ccccc1` (racemic) [Compound 2], the PAMPA assay [3] is reported as “Permeable”, the “AR + cell line activity (growth of AR-driven LNCaP cells)” value (AR+ LNCaP cells) is reported as “significantly reduced and inhibit cell proliferation in AR+ and Yes” and the “Growth of AR-independent PC3 (AR−) cells” value (AR-independent PC3 cells) is reported as “not AR-independent PC3 cells; also recorded: not AR− negative cell lines”. The AR protein levels [4] was “significantly reduced” and the “Expression of AR target genes” value [5] was “significantly reduced”.

With `CN(C)CCSSCCNC(=O)[C@@H]1CN(C(=O)c2cc(F)c(O)c(Cl)c2)C[C@H]1c1ccccc1` [Compound 994364] the “Thermal Shift (Cyslite PTGES3) ΔTm” value [1] was “increases the thermal melt temperature”.

For `C=CS(=O)(=O)N[C@@H]1CN(C(=O)c2ccc(S(=O)(=O)NC)cc2)C[C@H]1c1ccccc1` [Compound 7], the “Thermal Shift (Cyslite PTGES3) ΔTm” value [1] was “ΔTm + 2.1 C. ° C”, the “4 h labeling (100 uM)” value [2] was 7.21% and the “24 h labeling (100 uM)” value [2] was 36.40%.

With `C=CS(=O)(=O)N[C@@H]1CN(C(=O)c2ccc(O)cc2)C[C@H]1c1ccccc1` [Compound 5] the “4 h labeling (100 uM)” value [2] was 4.71% and the “24 h labeling (100 uM)” value [2] was 35.51%.

In the case of `CN(C)CCSSCCNC(=O)[C@@H]1CN(C(=O)c2cc(F)c(O)c(Cl)c2)C[C@H]1c1ccccc1` (racemic) [Compound 1], the EC50 [6] is reported as 70.6 µM, the “% Labeling in presence of 500 uM BME competitor” value ([7]; 500 uM BME) is reported as 79.03% and the “% Labeling in presence of 1 mM BME competitor” value ([7]; 1 mM BME) is reported as 76.67%. For the same compound, the “Thermal Shift (Cyslite PTGES3) ΔTm” value [1] was “confirmed by DSF to stabilize CysLite PTGES3”, the “Thermal Shift (Cyslite PTGES3) ΔTm” value ([1]; listed as compound 1) was 1.6 °C and the “PTGES3-AR interaction (far western blot)” value (PTGES3-AR interaction) was “ablated in vitro PTGES3-AR interaction; also recorded: disrupted the PTGS3-AR interaction”. For the same compound, the “PTGES3 enhanced AR/ARE binding (gel shift)” value [8] was “inhibited PTGES3 enhanced AR/ARE binding; also recorded: increases the free ARE levels”.

For `C=CS(=O)(=O)NC1CN(C(=O)[C@@H]2CN(C(=O)c3ccc(S(N)(=O)=O)c(F)c3)C[C@H]2c2ccccc2)C1` [Compound 14], the “Thermal Shift (Cyslite PTGES3) ΔTm” value [1] was “No stabilization”, the “Cell activity (inhibited cell growth in AR+ LNCaP cells)” value (AR+ LNCaP cells) was “No” and the “4 h labeling (100 uM)” value [2] was 7.18%. The “24 h labeling (100 uM)” value [2] was 48.46%.

In the case of `C=CS(=O)(=O)N[C@@H]1CN(C(=O)c2ccc(S(N)(=O)=O)c(F)c2)C[C@H]1c1ccccc1` [Compound 9], the “Thermal Shift (Cyslite PTGES3) ΔTm” value [1] is reported as “ΔTm + 3.3 °C”, the “Cell activity (inhibited cell growth in AR+ LNCaP cells)” value (AR+ LNCaP cells) is reported as “Yes” and the “4 h labeling (100 uM)” value [2] is reported as 12.38%. The “24 h labeling (100 uM)” value [2] was 51.4%.

With `C=CS(=O)(=O)N1CCN(C(=O)[C@@H]2CN(C(=O)c3ccc(S(N)(=O)=O)c(F)c3)C[C@H]2c2ccccc2)CC1` [Compound 12] the “Thermal Shift (Cyslite PTGES3) ΔTm” value [1] was “No stabilization”, the “4 h labeling (100 uM)” value [2] was 6.27% and the “24 h labeling (100 uM)” value [2] was 36.65%.

With `C=CS(=O)(=O)N[C@@H]1CN(C(=O)c2ccccc2)C[C@H]1c1ccccc1` [Compound 4] the “Thermal Shift (Cyslite PTGES3) ΔTm” value [1] was “ΔTm + 1.9 °C”, the “4 h labeling (100 uM)” value [2] was 4.01% and the “24 h labeling (100 uM)” value [2] was 20.75%.
